Reference: patent US12723063B2, “GIPR-agonist compounds” (Eli Lilly and Company, priority 2019, dated 2026)
*1 amine or outer side, *2 acyl side, *3 side chain or, on linkers, in order; H or OH if unused. Where a SMILES comes first, the peptide text is derived from it. Side-chain parts run from the residue outwards. [ ]: non-standard residue; d: D form. The star is where a group is joined. C20 diacid = O=C(O)CCCCCCCCCCCCCCCCCCC(=O)*; C18 diacid = O=C(O)CCCCCCCCCCCCCCCCC(=O)*; αMePhe(2-F) = C[C@](N)(Cc1ccccc1F)C(=O)O; γGlu = O=C(O)[C@H](CCC(=O)[*:2])N[*:1]; αMeY = C[C@](N)(Cc1ccc(O)cc1)C(=O)O; αMeL = CC(C)C[C@](C)(N)C(=O)O; AEEA = NCCOCCOCC(=O)O; Aib = CC(C)(N)C(=O)O

Tests used:
[1] = target: T1, human GcgR (Homo sapiens, UniProt P47871); assay: [125I]-Glucagon binding, SPA with WGA beads, 0.1% bacitracin; details: geometric mean, read-out: hGcgR Ki
T1 construct: expressed in transfected cells; crude membranes
How it was run: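 SPA competition binding with WGA beads on crude membranes from HEK293 cells stably expressing hGcgR. Buffer: 25 mM HEPES pH 7.4, 2.5 mM CaCl2, 1 mM MgCl2, 0.1% bacitracin, 0.003% Tween-20; 10-point 3-fold dilutions, NSB with 1 μM Gcg.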

[2] = target: T2, human GLP-1 receptor (GLP-1R) (Homo sapiens, UniProt P43220); assay: cAMP functional assay (HTRF) in HEK293 cells in presence of 0.1% casein; assay type: cell-based; details: HEK293 cells expressing human GLP-1R, geometric mean, read-out: hGLP1R cAMP Rel EC50 nM (SEM, n)
T2 construct: expressed in transfected cells; host or cells: HEK293
T2 sequence (P43220 24-463): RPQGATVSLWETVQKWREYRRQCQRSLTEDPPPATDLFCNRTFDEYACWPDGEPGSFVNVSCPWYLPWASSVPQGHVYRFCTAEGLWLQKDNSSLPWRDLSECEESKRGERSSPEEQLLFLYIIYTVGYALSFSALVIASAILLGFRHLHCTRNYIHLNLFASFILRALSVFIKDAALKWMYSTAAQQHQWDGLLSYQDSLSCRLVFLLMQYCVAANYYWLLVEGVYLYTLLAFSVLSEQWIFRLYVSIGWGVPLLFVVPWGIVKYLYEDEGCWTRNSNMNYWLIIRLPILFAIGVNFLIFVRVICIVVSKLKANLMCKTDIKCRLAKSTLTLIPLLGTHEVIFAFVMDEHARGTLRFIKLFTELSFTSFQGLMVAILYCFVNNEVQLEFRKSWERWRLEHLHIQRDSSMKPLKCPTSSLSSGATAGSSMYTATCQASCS

T1 sequence (P47871 26-477): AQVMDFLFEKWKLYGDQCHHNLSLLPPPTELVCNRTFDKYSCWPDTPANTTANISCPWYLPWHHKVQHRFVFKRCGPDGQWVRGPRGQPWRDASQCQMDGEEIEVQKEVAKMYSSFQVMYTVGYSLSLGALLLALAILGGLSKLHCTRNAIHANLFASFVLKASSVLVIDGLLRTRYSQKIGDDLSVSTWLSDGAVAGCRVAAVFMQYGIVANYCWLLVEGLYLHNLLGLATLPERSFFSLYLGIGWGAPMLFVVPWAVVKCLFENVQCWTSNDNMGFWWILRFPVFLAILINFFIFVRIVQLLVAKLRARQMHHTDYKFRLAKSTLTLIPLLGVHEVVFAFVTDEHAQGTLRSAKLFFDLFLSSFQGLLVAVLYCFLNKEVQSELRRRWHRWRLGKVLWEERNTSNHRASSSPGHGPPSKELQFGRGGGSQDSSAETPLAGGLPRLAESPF

Compound	Ki [1] [nM]	EC50 [2] [nM]
CC[C@H](C)[C@H](NC(=O)[C@H](Cc1ccccc1)NC(=O)[C@@H](NC(=O)CNC(=O)[C@H](CCC(=O)O)NC(=O)C(C)(C)NC(=O)[C@@H](N)Cc1ccc(O)cc1)[C@@H](C)O)C(=O)N[C@@H](CO)C(=O)N[C@@H](CC(=O)O)C(=O)N[C@@H](Cc1ccc(O)cc1)C(=O)N[C@@H](CO)C(=O)N[C@H](C(=O)N[C@@](C)(CC(C)C)C(=O)N[C@@H](CC(C)C)C(=O)N[C@@H](CC(=O)O)C(=O)N[C@@H](CCCCN)C(=O)N[C@@H](CCCCNC(=O)COCCOCCNC(=O)COCCOCCNC(=O)CC[C@H](NC(=O)CCCCCCCCCCCCCCCCCCC(=O)O)C(=O)O)C(=O)N[C@@H](Cc1c[nH]cn1)C(=O)N[C@@H](CCC(N)=O)C(=O)NC(C)(C)C(=O)N[C@@H](CC(=O)O)C(=O)N[C@@H](Cc1ccccc1)C(=O)N[C@H](C(=O)N[C@@H](CCC(=O)O)C(=O)N[C@@](C)(Cc1ccc(O)cc1)C(=O)N[C@@H](CC(C)C)C(=O)N[C@@H](CC(C)C)C(=O)N[C@@H](CCC(=O)O)C(=O)N[C@@H](C)C(=O)NCC(=O)N1CCC[C@H]1C(=O)N[C@@H](CO)C(=O)N[C@@H](CO)C(=O)NCC(=O)N[C@@H](C)C(=O)N1CCC[C@H]1C(=O)N1CCC[C@H]1C(=O)N1CCC[C@H]1C(=O)N[C@@H](CO)C(N)=O)C(C)C)[C@@H](C)CC [Example 90] (H-Y[Aib]EGTFISDYSI[αMeL]LDKK([AEEA-AEEA-γGlu-C20 diacid])HQ[Aib]DFVE[αMeY]LLEAGPSSGAPPPS-NH2)	112	> 5000
CC[C@H](C)[C@H](NC(=O)[C@H](Cc1ccccc1)NC(=O)[C@@H](NC(=O)CNC(=O)[C@H](CCC(=O)O)NC(=O)C(C)(C)NC(=O)[C@@H](N)Cc1ccc(O)cc1)[C@@H](C)O)C(=O)N[C@@H](CO)C(=O)N[C@@H](CC(=O)O)C(=O)N[C@@H](Cc1ccc(O)cc1)C(=O)N[C@@H](CO)C(=O)N[C@H](C(=O)N[C@@](C)(CC(C)C)C(=O)N[C@@H](CC(C)C)C(=O)N[C@@H](CC(=O)O)C(=O)N[C@@H](CCCCN)C(=O)N[C@@H](CCCCNC(=O)COCCOCCNC(=O)COCCOCCNC(=O)CC[C@H](NC(=O)CCCCCCCCCCCCCCCCCCC(=O)O)C(=O)O)C(=O)N[C@@H](Cc1c[nH]cn1)C(=O)N[C@@H](CCC(N)=O)C(=O)NC(C)(C)C(=O)N[C@@H](CC(=O)O)C(=O)N[C@@H](Cc1ccccc1)C(=O)N[C@H](C(=O)N[C@@H](CCC(=O)O)C(=O)N[C@@](C)(Cc1ccc(O)cc1)C(=O)N[C@@H](CC(C)C)C(=O)N[C@@H](CC(C)C)C(=O)N[C@@H](CCC(=O)O)C(=O)NCC(=O)NCC(=O)N1CCC[C@H]1C(=O)N[C@@H](CO)C(=O)N[C@@H](CO)C(=O)NCC(=O)N[C@@H](C)C(=O)N1CCC[C@H]1C(=O)N1CCC[C@H]1C(=O)N1CCC[C@H]1C(=O)N[C@@H](CO)C(N)=O)C(C)C)[C@@H](C)CC [Example 91] (H-Y[Aib]EGTFISDYSI[αMeL]LDKK([AEEA-AEEA-γGlu-C20 diacid])HQ[Aib]DFVE[αMeY]LLEGGPSSGAPPPS-NH2)	54.4	530
CC[C@H](C)[C@H](NC(=O)[C@H](CCCCN)NC(=O)[C@H](CC(=O)O)NC(=O)[C@H](CC(C)C)NC(=O)[C@](C)(CC(C)C)NC(=O)[C@@H](NC(=O)[C@H](CO)NC(=O)[C@H](Cc1ccc(O)cc1)NC(=O)[C@H](CC(=O)O)NC(=O)[C@H](CO)NC(=O)[C@@H](NC(=O)[C@H](Cc1ccccc1)NC(=O)[C@@H](NC(=O)CNC(=O)[C@H](CCC(=O)O)NC(=O)C(C)(C)NC(=O)[C@@H](N)Cc1ccc(O)cc1)[C@@H](C)O)[C@@H](C)CC)[C@@H](C)CC)C(=O)N[C@@H](Cc1c[nH]cn1)C(=O)N[C@@H](CCC(N)=O)C(=O)NC(C)(C)C(=O)N[C@@H](CC(=O)O)C(=O)N[C@@H](Cc1ccccc1)C(=O)N[C@H](C(=O)N[C@@H](CCC(=O)O)C(=O)N[C@@H](Cc1ccc(O)cc1)C(=O)N[C@@H](CCCCNC(=O)COCCOCCNC(=O)COCCOCCNC(=O)CC[C@H](NC(=O)CCCCCCCCCCCCCCCCCCC(=O)O)C(=O)O)C(=O)N[C@@H](CC(C)C)C(=O)N[C@@H](CCC(=O)O)C(=O)N[C@@H](CCC(N)=O)C(=O)NCC(=O)N1CCC[C@H]1C(=O)N[C@@H](CO)C(=O)N[C@@H](CO)C(=O)NCC(=O)N[C@@H](C)C(=O)N1CCC[C@H]1C(=O)N1CCC[C@H]1C(=O)N1CCC[C@H]1C(=O)N[C@@H](CO)C(N)=O)C(C)C [Example 92] (H-Y[Aib]EGTFISDYSI[αMeL]LDKIHQ[Aib]DFVEYK([AEEA-AEEA-γGlu-C20 diacid])LEQGPSSGAPPPS-NH2)	> 958	> 5000
CC[C@H](C)[C@H](NC(=O)[C@H](CCCCN)NC(=O)[C@H](CC(=O)O)NC(=O)[C@H](CC(C)C)NC(=O)[C@H](CC(C)C)NC(=O)[C@@H](NC(=O)[C@H](CO)NC(=O)[C@H](Cc1ccc(O)cc1)NC(=O)[C@H](CC(=O)O)NC(=O)[C@H](CO)NC(=O)[C@@H](NC(=O)[C@H](Cc1ccccc1)NC(=O)[C@@H](NC(=O)CNC(=O)[C@H](CCC(=O)O)NC(=O)[C@@H](C)NC(=O)[C@@H](N)Cc1ccc(O)cc1)[C@@H](C)O)[C@@H](C)CC)[C@@H](C)CC)C(=O)N[C@@H](C)C(=O)N[C@@H](CCC(N)=O)C(=O)NC(C)(C)C(=O)N[C@@H](CC(=O)O)C(=O)N[C@@H](Cc1ccccc1)C(=O)N[C@H](C(=O)N[C@@H](CC(N)=O)C(=O)N[C@@H](Cc1c[nH]c2ccccc12)C(=O)N[C@@H](CCCCNC(=O)COCCOCCNC(=O)COCCOCCNC(=O)CC[C@H](NC(=O)CCCCCCCCCCCCCCCCC(=O)O)C(=O)O)C(=O)N[C@@H](CC(C)C)C(=O)N[C@@H](C)C(=O)N[C@@H](CCC(N)=O)C(=O)NCC(=O)N1CCC[C@H]1C(=O)N[C@@H](CO)C(=O)N[C@@H](CO)C(=O)NCC(=O)N[C@@H](C)C(=O)N1CCC[C@H]1C(=O)N1CCC[C@H]1C(=O)N1CCC[C@H]1C(=O)N[C@@H](CO)C(N)=O)C(C)C [Example 93] (H-Y[dA]EGTFISDYSILLDKIAQ[Aib]DFVNWK([AEEA-AEEA-γGlu-C18 diacid])LAQGPSSGAPPPS-NH2)	> 959	884
CC[C@H](C)[C@H](NC(=O)[C@H](CO)NC(=O)[C@H](Cc1ccc(O)cc1)NC(=O)[C@H](CC(=O)O)NC(=O)[C@H](CO)NC(=O)[C@@H](NC(=O)[C@](C)(Cc1ccccc1F)NC(=O)[C@@H](NC(=O)CNC(=O)[C@H](CCC(=O)O)NC(=O)C(C)(C)NC(=O)[C@@H](N)Cc1ccc(O)cc1)[C@@H](C)O)[C@@H](C)CC)C(=O)N[C@@H](C)C(=O)N[C@@H](CC(C)C)C(=O)N[C@@H](CC(=O)O)C(=O)N[C@@H](CCCCN)C(=O)N[C@H](C(=O)N[C@@H](Cc1c[nH]cn1)C(=O)N[C@@H](CCC(N)=O)C(=O)NC(C)(C)C(=O)N[C@@H](CCC(=O)O)C(=O)N[C@@H](Cc1ccccc1)C(=O)N[C@H](C(=O)N[C@@H](CC(N)=O)C(=O)N[C@@H](Cc1ccc(O)cc1)C(=O)N[C@@H](CCCCNC(=O)COCCOCCNC(=O)COCCOCCNC(=O)CC[C@H](NC(=O)CCCCCCCCCCCCCCCCC(=O)O)C(=O)O)C(=O)N[C@@H](CC(C)C)C(=O)N[C@@H](C)C(=O)NCC(=O)NCC(=O)N1CCC[C@H]1C(=O)N[C@@H](CO)C(=O)N[C@@H](CO)C(=O)NCC(=O)N[C@@H](C)C(=O)N1CCC[C@H]1C(=O)N1CCC[C@H]1C(=O)N1CCC[C@H]1C(=O)N[C@@H](CO)C(N)=O)C(C)C)[C@@H](C)CC [Example 94] (H-Y[Aib]EGT[αMePhe(2-F)]ISDYSIALDKIHQ[Aib]EFVNYK([AEEA-AEEA-γGlu-C18 diacid])LAGGPSSGAPPPS-NH2)	114	1090
CC[C@H](C)[C@H](NC(=O)[C@H](CO)NC(=O)[C@H](Cc1ccc(O)cc1)NC(=O)[C@H](CC(=O)O)NC(=O)[C@H](CO)NC(=O)[C@@H](NC(=O)[C@](C)(Cc1ccccc1F)NC(=O)[C@@H](NC(=O)CNC(=O)[C@H](CCC(=O)O)NC(=O)C(C)(C)NC(=O)[C@@H](N)Cc1ccc(O)cc1)[C@@H](C)O)[C@@H](C)CC)C(=O)N[C@@H](C)C(=O)N[C@@H](CC(C)C)C(=O)N[C@@H](CC(=O)O)C(=O)N[C@@H](CCCCN)C(=O)N[C@H](C(=O)N[C@@H](Cc1c[nH]cn1)C(=O)N[C@@H](CCC(N)=O)C(=O)NC(C)(C)C(=O)N[C@@H](CCC(=O)O)C(=O)N[C@@H](Cc1ccccc1)C(=O)N[C@H](C(=O)N[C@@H](CC(N)=O)C(=O)N[C@@H](Cc1ccc(O)cc1)C(=O)N[C@@H](CCCCNC(=O)COCCOCCNC(=O)COCCOCCNC(=O)CC[C@H](NC(=O)CCCCCCCCCCCCCCCCCCC(=O)O)C(=O)O)C(=O)N[C@@H](CC(C)C)C(=O)N[C@@H](CCC(=O)O)C(=O)NCC(=O)NCC(=O)N1CCC[C@H]1C(=O)N[C@@H](CO)C(=O)N[C@@H](CO)C(=O)NCC(=O)N[C@@H](C)C(=O)N1CCC[C@H]1C(=O)N1CCC[C@H]1C(=O)N1CCC[C@H]1C(=O)N[C@@H](CO)C(N)=O)C(C)C)[C@@H](C)CC [Example 95] (H-Y[Aib]EGT[αMePhe(2-F)]ISDYSIALDKIHQ[Aib]EFVNYK([AEEA-AEEA-γGlu-C20 diacid])LEGGPSSGAPPPS-NH2)	85	> 5000
CC[C@H](C)[C@H](NC(=O)[C@H](CO)NC(=O)[C@H](Cc1ccc(O)cc1)NC(=O)[C@H](CC(=O)O)NC(=O)[C@H](CO)NC(=O)[C@@H](NC(=O)[C@H](Cc1ccccc1)NC(=O)[C@@H](NC(=O)CNC(=O)[C@H](CCC(=O)O)NC(=O)C(C)(C)NC(=O)[C@@H](N)Cc1ccc(O)cc1)[C@@H](C)O)[C@@H](C)CC)C(=O)N[C@@H](C)C(=O)N[C@@H](CC(C)C)C(=O)N[C@@H](CC(=O)O)C(=O)N[C@@H](CCCCN)C(=O)N[C@H](C(=O)N[C@@H](Cc1c[nH]cn1)C(=O)N[C@@H](CCC(N)=O)C(=O)NC(C)(C)C(=O)N[C@@H](CCC(=O)O)C(=O)N[C@@H](Cc1ccccc1)C(=O)N[C@H](C(=O)N[C@@H](CC(N)=O)C(=O)N[C@@H](Cc1ccc(O)cc1)C(=O)N[C@@H](CCCCNC(=O)COCCOCCNC(=O)COCCOCCNC(=O)CC[C@H](NC(=O)CCCCCCCCCCCCCCCCCCC(=O)O)C(=O)O)C(=O)N[C@@H](CC(C)C)C(=O)N[C@@H](C)C(=O)NCC(=O)NCC(=O)N1CCC[C@H]1C(=O)N[C@@H](CO)C(=O)N[C@@H](CO)C(=O)NCC(=O)N[C@@H](C)C(=O)N1CCC[C@H]1C(=O)N1CCC[C@H]1C(=O)N1CCC[C@H]1C(=O)N[C@@H](CO)C(N)=O)C(C)C)[C@@H](C)CC [Example 96] (H-Y[Aib]EGTFISDYSIALDKIHQ[Aib]EFVNYK([AEEA-AEEA-γGlu-C20 diacid])LAGGPSSGAPPPS-NH2)	> 960	> 5000
